Target: T1, Protein tyrosine phosphatase 1B (PTP1B) (Homo sapiens, UniProt P18031)
T1 construct: gene PTPN1; recombinant human His-PTP1B protein
T1 sequence (P18031 1-435): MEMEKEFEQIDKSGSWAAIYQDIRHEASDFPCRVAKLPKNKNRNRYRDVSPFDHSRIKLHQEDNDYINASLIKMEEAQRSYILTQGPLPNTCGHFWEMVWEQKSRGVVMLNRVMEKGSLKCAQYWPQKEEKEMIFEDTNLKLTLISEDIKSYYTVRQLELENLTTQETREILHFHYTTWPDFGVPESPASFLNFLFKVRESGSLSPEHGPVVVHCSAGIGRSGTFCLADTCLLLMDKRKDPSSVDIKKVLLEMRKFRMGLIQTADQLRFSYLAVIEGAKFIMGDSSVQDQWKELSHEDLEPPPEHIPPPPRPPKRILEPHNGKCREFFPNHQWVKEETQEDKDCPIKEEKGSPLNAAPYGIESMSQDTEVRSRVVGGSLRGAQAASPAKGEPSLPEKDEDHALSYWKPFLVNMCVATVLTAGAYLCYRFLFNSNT
Assay: pNPP phosphatase assay with recombinant His-PTP1B, absorbance at […] nm
Type: biochemical

For `CCCCCCCCCCCCCCOc1ccccc1NC(=O)c1ccccc1C(=O)O` [CX08005], the IC50 was 750 ± 70 nM.

From publication PMC9863901, “CX08005, a Protein Tyrosine Phosphatase 1B Inhibitor, Attenuated Hepatic Lipid Accumulation and Microcirculation Dysfunction Associated with Nonalcoholic Fatty Liver Disease” (Pharmaceuticals, 2023)
